Here are results for 29 compounds from patent US20240109842A1, “ACRYLAMIDE COMPOUNDS” (OTSUKA PHARMACEUTICAL CO., LTD., priority 2019, published 2024).

Test [1] relates to immortalized megakaryocyte cell line. Put plainly: Test Example 2: platelet production, shake culturing, with various aryl hydrocarbon receptor antagonists. To be noted: for Amount of platelet production (vs. Control): comparative examples: only an aryl hydrocarbon receptor antagonist, no acrylamide compound, A1 0.75 μM, A2 0.1 μM, A3 10 μM, A4 1 μM, A5 to A8 0.1 μM.
Test [2] shares this test system. Put plainly: Test Example 1: platelet production, shake culturing. It is filed as cell-based. To be noted: for fold induction at 10 µM: Platelet, 144 h, read-out: Amount of platelet production (vs. Control); for Amount of platelet production (vs. Control): aryl hydrocarbon receptor antagonist Compound A5 0.1 μM added at cell seeding, counted after 6 days. On the procedure:
The immortalized megakaryocyte cell line obtained according to the method described in WO 2016/204256 was washed twice with D-PBS(−) and then cultured in medium not containing doxycycline to terminate forced expression (cultured under conditions where gene expression is OFF). Shake culturing at 100 rpm was performed in the following medium after the cells were seeded in a 125-mL polycarbonate Erlenmeyer flask (Corning #431143) at 25 mL/flask and a seeding density of 1×10^5 cells/mL. Culturing conditions were 37° C. and 5% CO2. The medium was obtained by adding the following components to IMDM serving as the basal medium (concentrations indicate final concentrations). • FBS 15% • L-Glutamine 2 mM • ITS 100-fold dilution • MTG 450 μM • Ascorbic acid 50 μg/mL • SCF 50 ng/mL • TA-316 0.1 μg/mL • ADAM inhibitor 15 μM • ROCK inhibitor 0.5 μM […] After culturing for 6 days in total, the number of platelets was measured. The measurement method was as follows. The same operation was performed for control. At 6 days after initiation of the culturing under conditions where gene expression was OFF, a part of the culture supernatant was collected, and suspended with the following antibody and Flow-Count Fluorospheres (Beckman Coulter #7547053) to perform staining. • APC-labeled anti-CD41 antibody (BioLegend #303710) • eFluor 450-labeled anti-CD42a antibody (eBioscience #48-0428-42) • PE-labeled anti-CD42b antibody (BioLegend #303906) At 30 minutes after staining, number of platelets (CD41, CD42a and CD42b-positive cells) was counted by using FACSVerse (manufactured by BD Japan) with Flow-Count Fluorospheres. The number of platelets was given as a percentage of the control.

Setting [3] is: Platelet, 144 h, read-out: Amount of platelet production (vs. Control).
[4] abbreviates: DMSO added at cell seeding (no AhR antagonist), compound 10 μM added at Day 3, platelets (CD41, CD42a, CD42b-positive) counted after 6 days.

Turning to `CC1(C)COc2nc3c(NCCc4ccc(O)c(-c5cncc(F)c5)c4)nc(-c4cncc(F)c4)nc3n21` [Compound A7, 2-(5-fluoropyridin-3-yl)-4-[2-[[2-(5-fluoropyridin-3-yl)-8,8-dimethyl-7H-purino[8,9-b][1,3]oxazol-4-yl]amino]ethyl]phenol, reference compound], in test [1], the “Amount of platelet production (vs. Control)” value (“Amount … (vs. Control)” for short) was “+ (the amount of platelets production increased by not less than 1.5 times and less than 6.5 times)”.

As for `Cc1ccccc1/N=N/c1ccc(NC(=O)c2ccnn2C)c(C)c1` [Compound A4, 1-Methyl-N-[2-methyl-4-[2-(2-methylphenyl)diazenyl]phenyl]-1H-pyrazole-5-carboxamide, reference compound], the fold induction at 1 µM in test [1] (setting [3]) is 1.5 to 6.5.

`CC1(C)COc2nc3c(NCCc4ccc(O)c(-c5cccc(C#N)c5)c4)nc(-c4cncc(F)c4)nc3n21` [Compound A5, 3-[5-[2-[[2-(5-Fluoropyridin-3-yl)-8,8-dimethyl-7H-purino[8,9-b][1,3]oxazol-4-yl]amino]ethyl]-2-hydroxyphenyl]benzonitrile, reference compound]: the “Amount … (vs. Control)” value in test [1] was “+ (the amount of platelets production increased by not less than 1.5 times and less than 6.5 times)”.

Take `COc1cccc2c(/C=C/C(=O)NCCc3ccccc3-c3ccccc3)cn(C(C)=O)c12` [Example 24, (E)-3-(1-acetyl-7-methoxyindol-3-yl)-N-[2-(2-phenylphenyl)ethyl]prop-2-enamide]: the fold induction at 10 µM in test [2] (setting [4]) lay within 1.5 to 6.5. Further, the “Amount … (vs. Control)” value in test [2] (compound 10 μM added at Day 3) is listed as “++ (not less than 6.5 times)”.

Regarding `COc1cccc2c(/C=C/C(=O)NCCc3ccccc3-c3nccs3)c[nH]c12` [Example 14], the fold induction at 10 µM in test [2] fell in the range of 1.5 to 6.5. The “Amount … (vs. Control)” value in test [2] (compound 10 μM added at Day 3) was “++ (not less than 6.5 times)”.

As to `CCSc1ccccc1CCNC(=O)/C=C/c1cn(C(C)=O)c2c(OC)cccc12` [Example 9], in test [2] (setting [4]), the fold induction at 10 µM lay within 1.5 to 6.5. Besides, the “Amount … (vs. Control)” value in test [2] (compound 10 μM added at Day 3) was “++ (not less than 6.5 times)”.

As for `Cc1ccnc2c(/C=C/C(=O)NCCc3ccccc3-c3ncccn3)c[nH]c12` [Example 41], in test [2] (setting [4]), the fold induction at 10 µM was 1.5 to 6.5. In addition, the “Amount … (vs. Control)” value in test [2] (compound 10 μM added at Day 3) is reported as “++ (not less than 6.5 times)”.

Take `CC(C)n1cnc2c(NCCc3ccc(O)cc3)nc(-c3csc4ccccc34)nc21` [Compound A1, 4-[2-[[2-benzo[b]thien-3-yl-9-(1-methylethyl)-9H-purin-6-yl]amino]ethyl]phenol, reference compound]: the fold induction at 0.75 µM in test [1] (setting [3]) fell in the range of 1.5 to 6.5.

`Cc1cc(-c2ccc(CC(=O)Nc3ccc(-c4cccnc4)cc3)cc2)ccn1` [Compound A3, 4-(2-Methyl-4-pyridinyl)-N-[4-(3-pyridinyl)phenyl]-benzeneacetamide, reference compound]: in test [1] (setting [3]), the fold induction at 10 µM lay within 1.5 to 6.5.

On to `Cc1cccc2c(/C=C/C(=O)NCCc3ccccc3-c3ncccn3)c[nH]c12` [Example 46], for which, in test [2] (setting [4]), the fold induction at 10 µM lay in the range of 1.5 to 6.5. Further, the “Amount … (vs. Control)” value in test [2] (compound 10 μM added at Day 3) is “++ (not less than 6.5 times)”.

Regarding `COc1cccc2c(/C=C/C(=O)NCCc3ccccc3-c3ncccn3)cn(C)c12` [Example 53], the fold induction at 10 µM in test [2] (setting [4]) fell in the range of 1.5 to 6.5. In test [2] (compound 10 μM added at Day 3), the “Amount … (vs. Control)” value was “++ (not less than 6.5 times)”.

For the compound `COc1cccc2c(/C=C/C(=O)NCCc3ccccc3-c3ccncn3)c[nH]c12` [Example 34], the fold induction at 10 µM in test [2] (setting [4]) lay in the range of 1.5 to 6.5. Also, the “Amount … (vs. Control)” value in test [2] (compound 10 μM added at Day 3) is “++ (not less than 6.5 times)”.

`COc1cccc2c(/C=C/C(=O)NCCc3sccc3-c3cccs3)c[nH]c12` [Example 30]: the fold induction at 10 µM in test [2] (setting [4]) is 1.5 to 6.5. In addition, the “Amount … (vs. Control)” value in test [2] (compound 10 μM added at Day 3) was “++ (not less than 6.5 times)”.

`COC(=O)c1ccccc1CCNC(=O)/C=C/c1c[nH]c2c(OC)cccc12` [Example 8]: the fold induction at 10 µM in test [2] (setting [4]) lay in the range of 1.5 to 6.5. Moreover, in test [2] (compound 10 μM added at Day 3), the “Amount … (vs. Control)” value is reported as “++ (not less than 6.5 times)”.

In the case of `COc1cccc2c(/C=C/C(=O)NCCc3sccc3-c3ccccn3)c[nH]c12` [Example 32], the fold induction at 10 µM in test [2] (setting [4]) lay in the range of 1.5 to 6.5. In test [2] (compound 10 μM added at Day 3), the “Amount … (vs. Control)” value is “++ (not less than 6.5 times)”.

Take `COc1cccc2c(/C=C/C(=O)NCCc3ccccc3-c3ncc(C)cn3)c[nH]c12` [Example 52]: in test [2] (setting [4]), the fold induction at 10 µM is 1.5 to 6.5. Further, the “Amount … (vs. Control)” value in test [2] (compound 10 μM added at Day 3) was “++ (not less than 6.5 times)”.

For the compound `CCOc1ccccc1CCNC(=O)/C=C/n1cnc2c(OC)cccc21` [Example 38], the fold induction at 10 µM in test [2] (setting [4]) is 1.5 to 6.5. Besides, in test [2] (compound 10 μM added at Day 3), the “Amount … (vs. Control)” value was “+ (the amount of platelets production increased by not less than 1.5 times and less than 6.5 times)”.

`COc1cnc(-c2ccccc2CCNC(=O)/C=C/c2c[nH]c3c(OC)cccc23)nc1` [Example 56]: the fold induction at 10 µM in test [2] (setting [4]) is 1.5 to 6.5. Also, the “Amount … (vs. Control)” value in test [2] (compound 10 μM added at Day 3) is listed as “++ (not less than 6.5 times)”.

With `CC1(C)CSc2nc3c(NCCc4ccc(O)c(-c5ccccc5F)c4)nc(-c4cncc(F)c4)nc3n21` [Compound A8, 2-(2-fluorophenyl)-4-[2-[[2-(5-fluoropyridin-3-yl)-8,8-dimethyl-7H-purino[8,9-b][1,3]thiazol-4-yl]amino]ethyl]phenol, reference compound], in test [1] (setting [3]), the fold induction at 0.1 µM is 1.5 to 6.5.

With `COc1cccc2c(/C=C/C(=O)NCCc3ccccc3OCC3CC3)c[nH]c12` [Example 6], the fold induction at 10 µM in test [2] fell in the range of 1.5 to 6.5. In test [2] (compound 10 μM added at Day 3), the “Amount … (vs. Control)” value is given as “++ (not less than 6.5 times)”.

As for `COc1cccc2c(/C=C/C(=O)NCCc3ccccc3-c3cccnn3)c[nH]c12` [Example 33], in test [2] (setting [4]), the fold induction at 10 µM was in the range of 1.5 to 6.5. Moreover, in test [2] (compound 10 μM added at Day 3), the “Amount … (vs. Control)” value is “++ (not less than 6.5 times)”.

As for `CCOc1ccccc1CCNC(=O)/C=C/c1c[nH]c2c(OC)nccc12` [Example 36], the fold induction at 10 µM in test [2] (setting [4]) was 1.5 to 6.5. Moreover, the “Amount … (vs. Control)” value in test [2] (compound 10 μM added at Day 3) is given as “++ (not less than 6.5 times)”.

In the case of `COc1cccc2c(/C=C/C(=O)NCCc3ccccc3-c3ccccc3)c[nH]c12` [Example 2], in test [2], the fold induction at 10 µM lay within 1.5 to 6.5. Also, the “Amount … (vs. Control)” value in test [2] (compound 10 μM added at Day 3) is listed as “++ (not less than 6.5 times)”.

Consider `CCSc1ccccc1CCNC(=O)/C=C/c1c[nH]c2c(OC)cccc12` [Example 3], for which, in test [2] (setting [4]), the fold induction at 10 µM fell in the range of 1.5 to 6.5. For the same compound, in test [2] (compound 10 μM added at Day 3), the “Amount … (vs. Control)” value is “++ (not less than 6.5 times)”.

For `CCOc1ccsc1CCNC(=O)/C=C/c1c[nH]c2c(OC)cccc12` [Example 11], in test [2] (setting [4]), the fold induction at 10 µM fell in the range of 1.5 to 6.5. Moreover, in test [2] (compound 10 μM added at Day 3), the “Amount … (vs. Control)” value is recorded as “++ (not less than 6.5 times)”.

As for `COc1ccc(-c2ccccc2)c(CCNC(=O)/C=C/c2c[nH]c3c(OC)cccc23)c1` [Example 13], the fold induction at 10 µM in test [2] (setting [4]) lay in the range of 1.5 to 6.5. Also, in test [2] (compound 10 μM added at Day 3), the “Amount … (vs. Control)” value is given as “++ (not less than 6.5 times)”.

As for `O=C(/C=C/c1c[nH]c2c(Cl)cccc12)NCCc1ccccc1-c1ncccn1` [Example 48], the fold induction at 10 µM in test [2] (setting [4]) fell in the range of 1.5 to 6.5. Also, in test [2] (compound 10 μM added at Day 3), the “Amount … (vs. Control)” value was “++ (not less than 6.5 times)”.

As for `COCCn1cc(/C=C/C(=O)NCCc2ccccc2-c2ncccn2)c2cccc(OC)c21` [Example 54], the fold induction at 10 µM in test [2] (setting [4]) fell in the range of 1.5 to 6.5. The “Amount … (vs. Control)” value in test [2] (compound 10 μM added at Day 3) was “++ (not less than 6.5 times)”.

For `COc1cccc2c(/C=C/C(=O)NCCc3ccccc3-c3ccccc3F)c[nH]c12` [Example 27], the fold induction at 10 µM in test [2] (setting [4]) is 1.5 to 6.5. The “Amount … (vs. Control)” value in test [2] (compound 10 μM added at Day 3) is listed as “++ (not less than 6.5 times)”.
